Values quoted from earlier work as cited in article PMC4791274, “Cerdulatinib, a novel dual SYK/JAK kinase inhibitor, has broad anti-tumor activity in both ABC and GCB types of diffuse large B cell lymphoma” (Oncotarget, 2015).

Key:
R/R patients (DLBCL) = tested on: R/R patients (DLBCL); design: method as in PMID 17389337; conditions: number of patients, in 55 R/R patients; cited from earlier work
DLBCL patients = conditions: available clinical data; cited from earlier work
[1] = tested on: relapsed/refractory (R/R) DLBCL patients; design: method as in PMID 19965662; conditions: 5 of 23 R/R DLBCL patients, phase I/II; cited from earlier work
LY3 cell line = tested on: LY3 cell line; design: method as in PMID 22025527; conditions: cited from earlier work
DHL2 cell line = tested on: DHL2 cell line; design: method as in PMID 22025527; conditions: cited from earlier work
LY4 cell line = tested on: LY4 cell line; design: method as in PMID 22025527; conditions: LY4, lacks surface immunoglobulins; cited from earlier work
DLBCL cells = conditions: cited from earlier work
R/R DLBCL = tested on: R/R DLBCL; design: method as in PMID 26193343; conditions: phase II, 80 R/R DLBCL; cited from earlier work

Compound: Cn1cc(C2=C(c3cn(C4CCN(Cc5ccccn5)CC4)c4ccccc34)C(=O)NC2=O)c2ccccc21 [Enzastaurin]
- complete responses (R/R patients (DLBCL)): 3
- stable disease (R/R patients (DLBCL)): 1
- fraction of DLBCL patients in whom active (DLBCL patients): ≤ 20%

Compound: COc1cc(Nc2ncc(F)c(Nc3ccc4c(n3)N(COP(=O)(O)O)C(=O)C(C)(C)O4)n2)cc(OC)c1OC [Fostamatinib]
- objective response [1]: 22%
- fraction of DLBCL patients in whom active (DLBCL patients): ≤ 20%

Compound: Cc1cccc(Nc2nc(N[C@@H]3CCCC[C@@H]3N)ncc2C(N)=O)c1 [PRT060318]
- sensitivity to SYK selective inhibitor (LY3 cell line): insensitive
- sensitivity to SYK selective inhibitor (DHL2 cell line): insensitive
- sensitivity to selective SYK inhibition (LY4 cell line): resistant
- impact on cell viability (DLBCL cells): minimal impact on cell viability

Compound: Cc1nc(Nc2ncc(C(=O)Nc3c(C)cccc3Cl)s2)cc(N2CCN(CCO)CC2)n1 [dasatinib]
- impact on cell viability (DLBCL cells): minimal impact on cell viability

Compound: C=CC(=O)N1CCC[C@@H](n2nc(-c3ccc(Oc4ccccc4)cc3)c3c(N)ncnc32)C1 [ibrutinib]
- response rate of all DLBCL tumors (R/R DLBCL): 19%
- responsive tumors, ABC subtype (R/R DLBCL): 37%
- responsive tumors, GCB subtype (R/R DLBCL): 5%
